Entries after “also recorded” stand apart in the source; their conditions may differ.
Legend:
[1] = test system: Jc1 378-1 TagRFP reporter HCV virus; test: In vitro inhibition of HCV in Huh-7.5 cells; format: cell-based, hepatitis C virus; conditions: for inhibition of HCV replication: Huh-7.5 cells, MOI=0.1, 3 dpi; for mean fluorescence intensity (MFI) of HCV positive cells: normalized to DMSO control
Method: The compound of formula (II) was also tested for the in vitro inhibition of HCV. Huh-7.5 cells were seeded in a 24-well plates (50,000 cells/well) and incubate over night. The medium was changed to compound/solvent containing medium 2 hours prior to infection (200 μL/well) with a reporter HCV virus called Jc1 378-1 TagRFP. A dilute virus stock was used to infect at a MOI of 0.1 (7,500 IU/well) in 10 μL medium. 10 μL of virus dilution was added to the wells containing compound/solvent (thereby dilution the compounds by only ˜5%). Infections were incubated for 4 hours before washing off the inoculum 1× with 500 μL medium. Fresh compound/solvent containing medium was added to the cells (500 μL/well), and further incubated for 48-72 hours. Cells were harvested at 48-72 hpi and viral replication was determined by fixing the cells and measuring replication by FACS (fluorescence activated cell sorting). Controls having antibodies that neutralize HCV by blocking E2 (2 μg/mL) and controls having antibodies that block a HCV receptor CD81 (2 μg/mL) were used.
A series of tests were conducted using the compound of Formula II ML278), other known inhibitors of SRB1 and controls with cells infected with hepatitis C virus (HCV). The cells (Huh-7.5 cells infected with Jc1 378-1 TagRFP (MOI=0.1) 3 dpi) were treated with the following SR-BI compounds and controls:
Three different infection protocols were followed: (1) no wash—virus inoculum was removed 4 hpi and fresh medium containing compounds added without washing cells; (2) 5× wash—virus inoculum was removed 4 hpi, cells were washed 5× with PBS and fresh medium containing compounds added; and (3) no wash Opt—infection were performed in serum-free OptiMem; virus inoculum was removed 4 hpi and fresh medium containing compounds added without washing cells. FIG. 107 provides a comparison of the three different infection set-ups. FIG. 108 provides a comparison of two independent experiments.

C384S SR-BI = target: T1, C384S SR-BI (Mus musculus, UniProt Q61009, C384S); test: Radioactive HDL uptake assay (mutant SR-BI); format: cell-based, murine
T1 construct: expressed in transfected cells; host or cells: CHO cell line lacking LDL receptors (variant of ldlA[mSR-BI])
T1 sequence (Q61009 1-509 C384S): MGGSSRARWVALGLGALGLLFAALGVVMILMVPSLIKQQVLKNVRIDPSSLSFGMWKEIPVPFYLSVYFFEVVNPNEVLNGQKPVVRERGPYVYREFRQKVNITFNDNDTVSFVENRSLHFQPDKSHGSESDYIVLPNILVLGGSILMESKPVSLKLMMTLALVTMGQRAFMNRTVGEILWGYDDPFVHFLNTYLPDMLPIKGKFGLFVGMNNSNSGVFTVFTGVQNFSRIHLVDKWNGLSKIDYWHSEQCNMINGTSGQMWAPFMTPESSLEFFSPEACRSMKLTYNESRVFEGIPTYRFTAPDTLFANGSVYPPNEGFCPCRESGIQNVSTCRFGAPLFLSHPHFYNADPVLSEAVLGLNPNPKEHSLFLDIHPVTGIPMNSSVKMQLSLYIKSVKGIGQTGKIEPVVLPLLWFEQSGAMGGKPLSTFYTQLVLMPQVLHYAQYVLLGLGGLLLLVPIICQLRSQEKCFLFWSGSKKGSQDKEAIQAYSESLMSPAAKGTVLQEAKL
Excerpt: Radioactive HDL Uptake Assay (mutant SR-BI) (SA 9: AID No. 588837)
BLT-1 is known to interact at cysteine 384 of SR-BI (16). […] This assay is used to determine if the compounds work in a similar fashion to BLT-1 and require Cys384 to alter the binding of HDL particles and uptake of the lipid to the mutant SR-BI scavenger receptor, using an alternative means of labeling HDL-cholesterol particles and avoiding any type of fluorescence measurement. To measure this lipid uptake event, HDL particles are labeled with [^3H]cholesteryl ester and added to C384S SR-BI cells. Cells take up HDL lipids via the mutant SR-BI in 2 to 3 hours. After significant uptake of the HDL lipid, the radiolabel can be detected by liquid scintillation counting. The level of radioactivity correlates with the amount of HDL lipid uptake. The uptake of lipid from the HDL particles can be inhibited by the compound BLT-1 or when co-treated with an excess of unlabeled HDL. The mSR-BI cells utilized in the assay are a CHO cell line lacking expression of the LDL receptors and overexpressing the mutant scavenger receptor, C384S SR-BI.

| SMILES | inhibition of HCV replication ([1]; listed as SRB1-8) | mean fluorescence intensity (MFI) of HCV positive cells [1] | uptake of HDL in Cys384Ser mutant background (C384S SR-BI) | EC50 ([1]; Hepatitis C virus, Huh7.5, read-out: EC50, HCV) [nM] | EC90 ([1]; Hepatitis C virus, Huh7.5, read-out: EC90, HCV) [nM] | inhibition of HCV replication ([1]; listed as SRB1-7) |
| --- | --- | --- | --- | --- | --- | --- |
| CCCCCCC1CCCC1=NNC(N)=S (centres unmarked) [BLT-1, reference compound] | inhibited viral replication; also recorded: able to inhibit HCV replication | increased mean fluorescence intensity (MFI) of HCV positive cells in a dose dependent manner | does not significantly reduce uptake of HDL or efflux of cholesterol |  |  |  |
| COCC(=O)N1CCc2cc(-c3csc(NC(=O)c4cc(OC)cc(OC)c4)n3)ccc21 [Compound 137, 3,5-Dimethoxy-N-(4-(1-(2-methoxyacetyl)indolin-5-yl)thiazol-2-yl)benzamide] |  | this increase was not seen | can reduce uptake and efflux in the mutant background | 44 | ~500 | inhibited viral replication; also recorded: able to inhibit HCV replication |

Source: patent US9951055B2, “Thiazole-based inhibitors of scavenger receptor BI” (THE BROAD INSTITUTE, INC., priority 2012, dated 2018)
